Results on 15 compounds are retold here after BindingDB's records for patent US20240148821 (Chugai Seiyaku Kabushiki Kaisha, 2024).

Each structure is given as a SMILES string. Numbered stars: 1 amine (or outer) side, 2 acyl side, 3 side chain; on linkers, the order of the positions; unused ones are H or OH. Bridge positions count the residues as written; N and C are the ends. Square brackets hold non-standard residues; d marks the D form. Peptide text beside a SMILES is read from it. * marks the point of attachment. hPhe(3-Cl-4-CF3) = N[C@@H](CCc1ccc(C(F)(F)F)c(Cl)c1)C(=O)O; hPhe(3-F,4-CF3) = N[C@@H](CCc1ccc(C(F)(F)F)c(F)c1)C(=O)O; X134 = CN([C@@H](Cc1ccc(C#N)nc1)C(=O)[*:2])[*:1]; NMeTyr(3-F) = CN[C@@H](Cc1ccc(O)c(F)c1)C(=O)O; oXylylene = c1ccc(C[*:2])c(C[*:1])c1; NMeGly(cBu) = CN[C@H](C(=O)O)C1CCC1; NMeCha = CN[C@@H](CC1CCCCC1)C(=O)O; cisHyp = O=C(O)[C@@H]1C[C@H](O)CN1; X108 = O=C(CN(c1ccsc1)[*:1])[*:2]; Hyp = O=C(O)[C@@H]1C[C@@H](O)CN1; NMeChg = CN[C@H](C(=O)O)C1CCCCC1; NMeD = CN[C@@H](CC(=O)O)C(=O)O; Benzyl(4-Cl) = Clc1ccc(C*)cc1; NMeL = CN[C@@H](CC(C)C)C(=O)O; NMeA = CN[C@@H](C)C(=O)O; Piperidide = C1CCN(*)CC1; X57 = FC(F)Oc1ccc(C*)cc1; Ac5c = NC1(C(=O)O)CCCC1; X106 = Clc1cccc(C*)c1; Nlys = NCCCCNCC(=O)O; X94 = COc1cccc(C*)c1; Meb = Cc1ccc(C*)cc1; X87 = Clc1ccccc1C*; Sar = CNCC(=O)O

In this test the target is GTPase KRas (G12D) and Son of Sevenless Homolog 1 (SOS) (Homo sapiens, UniProt P01116, G12D). Briefly: AlphaScreen Assay. Background: In Alpha technology, singlet oxygen from a donor bead excites a nearby acceptor bead.
Sequence of GTPase KRas (G12D) and Son of Sevenless Homolog 1 (SOS) (P01116 whole entry G12D): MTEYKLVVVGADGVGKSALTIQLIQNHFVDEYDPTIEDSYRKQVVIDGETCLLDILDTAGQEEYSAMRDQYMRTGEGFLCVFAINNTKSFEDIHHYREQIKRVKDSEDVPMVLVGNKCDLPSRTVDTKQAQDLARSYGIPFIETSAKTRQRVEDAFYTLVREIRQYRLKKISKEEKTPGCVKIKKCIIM
Sequence of GTPase KRas (G12D) and Son of Sevenless Homolog 1 (SOS) (Q07889 whole entry, further chain): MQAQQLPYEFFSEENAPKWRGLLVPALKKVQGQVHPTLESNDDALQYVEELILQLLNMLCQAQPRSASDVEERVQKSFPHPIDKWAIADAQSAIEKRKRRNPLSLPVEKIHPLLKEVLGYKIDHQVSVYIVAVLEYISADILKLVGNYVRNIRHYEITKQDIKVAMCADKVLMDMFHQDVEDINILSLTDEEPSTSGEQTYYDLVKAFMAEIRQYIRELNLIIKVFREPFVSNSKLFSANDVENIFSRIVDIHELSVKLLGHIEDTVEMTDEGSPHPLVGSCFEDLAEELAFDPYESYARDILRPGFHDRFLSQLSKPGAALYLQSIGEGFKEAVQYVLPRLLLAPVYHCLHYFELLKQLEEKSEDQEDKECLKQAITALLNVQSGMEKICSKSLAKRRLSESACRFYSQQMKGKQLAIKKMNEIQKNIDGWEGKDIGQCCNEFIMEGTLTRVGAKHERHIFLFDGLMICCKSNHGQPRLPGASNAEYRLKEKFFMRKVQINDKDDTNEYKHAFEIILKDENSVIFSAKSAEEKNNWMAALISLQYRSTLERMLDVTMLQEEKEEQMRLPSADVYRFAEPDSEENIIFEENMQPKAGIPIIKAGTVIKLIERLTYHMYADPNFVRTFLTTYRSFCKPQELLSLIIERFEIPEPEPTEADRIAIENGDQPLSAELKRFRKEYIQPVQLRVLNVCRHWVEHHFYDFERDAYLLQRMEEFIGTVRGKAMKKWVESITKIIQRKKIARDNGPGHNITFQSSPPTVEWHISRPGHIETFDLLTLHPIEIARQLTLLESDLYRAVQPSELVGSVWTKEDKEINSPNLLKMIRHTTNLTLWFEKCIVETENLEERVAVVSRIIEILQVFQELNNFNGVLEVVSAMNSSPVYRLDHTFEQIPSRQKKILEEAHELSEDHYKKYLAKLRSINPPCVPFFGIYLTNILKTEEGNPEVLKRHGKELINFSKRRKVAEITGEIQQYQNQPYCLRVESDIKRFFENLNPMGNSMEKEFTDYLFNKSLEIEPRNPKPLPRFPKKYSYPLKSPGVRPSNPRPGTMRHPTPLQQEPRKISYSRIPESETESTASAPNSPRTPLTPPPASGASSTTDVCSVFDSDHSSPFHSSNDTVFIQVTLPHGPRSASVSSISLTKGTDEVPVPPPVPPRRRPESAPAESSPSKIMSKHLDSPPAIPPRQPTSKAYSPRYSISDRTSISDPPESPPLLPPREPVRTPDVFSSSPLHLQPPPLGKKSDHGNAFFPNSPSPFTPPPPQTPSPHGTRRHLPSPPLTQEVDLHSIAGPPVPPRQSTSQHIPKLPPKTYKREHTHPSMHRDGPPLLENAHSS
Procedure: Protein-protein interaction inhibition (PPI) between Kras and SOS1 was measured by energy transfer from nickel-conjugated donor beads to streptavidin-conjugated acceptor beads using biotin-tagged human Kras expressed in E. coli and loaded with GDP after purification and His-tagged human SOS1 enzyme. This measurement utilizes the phenomenon in which donor beads are irradiated with light at 680 nm, such that energy is transferred to acceptor beads through singlet oxygen and light at 520-620 nm is detected from the acceptor beads.
As usually defined, the IC50 is the concentration that gives 50% inhibition. A high value points to a need for much substance. Regarding `CC[C@H](C)[C@@H]1NC(=O)[C@H](CC(C)C)N(C)C(=O)C[C@@H](C(=O)N2CCCCC2)N(C)C(=O)[C@H](CC(C)C)N(C)C(=O)C2(CCCC2)NC(=O)[C@@H]2C[C@@H](OCc3ccc(C)cc3)CN2C(=O)[C@H](CCc2ccc(C(F)(F)F)c(F)c2)NC(=O)CN(C)C(=O)[C@H](CC2CCCCC2)N(C)C(=O)CN(C)C(=O)CN(C)C1=O` [US20240148821, Compound 2130] ([NMeL]I[Sar][Sar][NMeCha][Sar][hPhe(3-F,4-CF3)][Hyp](Meb)[Ac5c][NMeL][NMeD]-Piperidide; lactam N-11), it took 0.01 µM to reach half-maximal inhibition (IC50).

Compound `CC[C@H](C)[C@@H]1NC(=O)[C@H](CC(C)C)N(C)C(=O)C[C@@H](C(=O)N2CCCCC2)N(C)C(=O)[C@H](CC(C)C)N(C)C(=O)C2(CCCC2)NC(=O)[C@@H]2C[C@@H](OCc3cccc(OC)c3)CN2C(=O)[C@H](CCc2ccc(C(F)(F)F)c(F)c2)NC(=O)CN(C)C(=O)[C@H](CC2CCCCC2)N(C)C(=O)CN(C)C(=O)CN(C)C1=O` [US20240148821, Compound 2131] ([NMeL]I[Sar][Sar][NMeCha][Sar][hPhe(3-F,4-CF3)][Hyp](X94)[Ac5c][NMeL][NMeD]-Piperidide; lactam N-11) came in with an IC50 of 0.0098 µM.

With `CC[C@H](C)[C@@H]1NC(=O)[C@H](CC(C)C)N(C)C(=O)C[C@@H](C(=O)N2CCCCC2)N(C)C(=O)[C@H](CC(C)C)N(C)C(=O)C2(CCCC2)NC(=O)[C@@H]2C[C@H](OCc3ccccc3Cl)CN2C(=O)[C@H](CCc2ccc(C(F)(F)F)c(F)c2)NC(=O)CN(C)C(=O)[C@H](CC2CCCCC2)N(C)C(=O)CN(C)C(=O)CN(C)C1=O` [US20240148821, Compound 2132] ([NMeL]I[Sar][Sar][NMeCha][Sar][hPhe(3-F,4-CF3)][cisHyp](X87)[Ac5c][NMeL][NMeD]-Piperidide; lactam N-11), half-maximal inhibition (IC50) required 0.091 µM.

`CC[C@H](C)[C@@H]1NC(=O)[C@H](CC(C)C)N(C)C(=O)C[C@@H](C(=O)N2CCCCC2)N(C)C(=O)[C@H](CC(C)C)N(C)C(=O)C2(CCCC2)NC(=O)[C@@H]2C[C@@H](OCc3ccc(Cl)cc3)CN2C(=O)[C@H](CCc2ccc(C(F)(F)F)c(F)c2)NC(=O)CN(C)C(=O)[C@H](CC2CCCCC2)N(C)C(=O)CN(C)C(=O)CN(C)C1=O` [US20240148821, Compound 2133] ([NMeL]I[Sar][Sar][NMeCha][Sar][hPhe(3-F,4-CF3)][Hyp](Benzyl(4-Cl))[Ac5c][NMeL][NMeD]-Piperidide; lactam N-11) gave an IC50 of 0.012 µM.

Regarding `CC[C@H](C)[C@@H]1NC(=O)[C@H](CC(C)C)N(C)C(=O)C[C@@H](C(=O)N2CCCCC2)N(C)C(=O)[C@H](CC(C)C)N(C)C(=O)C2(CCCC2)NC(=O)[C@@H]2C[C@@H](OCc3cccc(Cl)c3)CN2C(=O)[C@H](CCc2ccc(C(F)(F)F)c(F)c2)NC(=O)CN(C)C(=O)[C@H](CC2CCCCC2)N(C)C(=O)CN(C)C(=O)CN(C)C1=O` [US20240148821, Compound 2134] ([NMeL]I[Sar][Sar][NMeCha][Sar][hPhe(3-F,4-CF3)][Hyp](X106)[Ac5c][NMeL][NMeD]-Piperidide; lactam N-11), it took 0.0098 µM to reach half-maximal inhibition (IC50).

`CC[C@H](C)[C@@H]1NC(=O)[C@H](CC(C)C)N(C)C(=O)C[C@@H](C(=O)N2CCCCC2)N(C)C(=O)[C@H](CC(C)C)N(C)C(=O)C2(CCCC2)NC(=O)[C@@H]2C[C@H](OCc3ccc(OC(F)F)cc3)CN2C(=O)[C@H](CCc2ccc(C(F)(F)F)c(F)c2)NC(=O)CN(C)C(=O)[C@H](CC2CCCCC2)N(C)C(=O)CN(C)C(=O)CN(C)C1=O` [US20240148821, Compound 2135] ([NMeL]I[Sar][Sar][NMeCha][Sar][hPhe(3-F,4-CF3)][cisHyp](X57)[Ac5c][NMeL][NMeD]-Piperidide; lactam N-11) displayed an IC50 of 0.088 µM.

`CC[C@H](C)[C@@H]1NC(=O)[C@H](CC(C)C)N(C)C(=O)C[C@@H](C(=O)N2CCCCC2)N(C)C(=O)[C@H](CC(C)C)N(C)C(=O)C2(CCCC2)NC(=O)[C@@H]2C[C@H](OCc3cccc(OC)c3)CN2C(=O)[C@H](CCc2ccc(C(F)(F)F)c(F)c2)NC(=O)CN(C)C(=O)[C@H](CC2CCCCC2)N(C)C(=O)CN(C)C(=O)CN(C)C1=O` [US20240148821, Compound 2136] ([NMeL]I[Sar][Sar][NMeCha][Sar][hPhe(3-F,4-CF3)][cisHyp](X94)[Ac5c][NMeL][NMeD]-Piperidide; lactam N-11): half-maximal inhibition (IC50) required 0.039 µM.

`CC[C@H](C)[C@@H]1NC(=O)[C@H](CC(C)C)N(C)C(=O)C[C@@H](C(=O)N2CCCCC2)N(C)C(=O)[C@H](CC(C)C)N(C)C(=O)C2(CCCC2)NC(=O)[C@@H]2C[C@H](OCc3ccccc3C)CN2C(=O)[C@H](CCc2ccc(C(F)(F)F)c(F)c2)NC(=O)CN(C)C(=O)[C@H](CC2CCCCC2)N(C)C(=O)CN(C)C(=O)CN(C)C1=O` [US20240148821, Compound 2137] ([NMeL]I[Sar][Sar][NMeCha][Sar][hPhe(3-F,4-CF3)][cisHyp](oXylylene)[Ac5c][NMeL][NMeD]-Piperidide; lactam N-11): inhibition was half-maximal at 0.069 µM (IC50).

Take `CC[C@H](C)[C@@H]1NC(=O)[C@H](CC(C)C)N(C)C(=O)C[C@@H](C(=O)N2CCCCC2)N(C)C(=O)[C@H](CC(C)C)N(C)C(=O)C2(CCCC2)NC(=O)[C@@H]2C[C@@H](OCc3ccccc3Cl)CN2C(=O)[C@H](CCc2ccc(C(F)(F)F)c(F)c2)NC(=O)CN(C)C(=O)[C@H](CC2CCCCC2)N(C)C(=O)CN(C)C(=O)CN(C)C1=O` [US20240148821, Compound 2138] ([NMeL]I[Sar][Sar][NMeCha][Sar][hPhe(3-F,4-CF3)][Hyp](X87)[Ac5c][NMeL][NMeD]-Piperidide; lactam N-11): the midpoint of inhibition, the IC50, lay at 0.0086 µM.

Turning to `CC[C@H](C)[C@@H]1NC(=O)[C@H](CC(C)C)N(C)C(=O)C[C@@H](C(=O)N2CCCCC2)N(C)C(=O)[C@H](CC(C)C)N(C)C(=O)C2(CCCC2)NC(=O)[C@@H]2C[C@@H](OCc3ccccc3C)CN2C(=O)[C@H](CCc2ccc(C(F)(F)F)c(F)c2)NC(=O)CN(C)C(=O)[C@H](CC2CCCCC2)N(C)C(=O)CN(C)C(=O)CN(C)C1=O` [US20240148821, Compound 2139] ([NMeL]I[Sar][Sar][NMeCha][Sar][hPhe(3-F,4-CF3)][Hyp](oXylylene)[Ac5c][NMeL][NMeD]-Piperidide; lactam N-11), the IC50 was 0.023 µM.

On to `CC[C@H](C)[C@@H]1NC(=O)[C@H](CC(C)C)N(C)C(=O)C[C@@H](C(=O)N2CCCCC2)N(C)C(=O)[C@H](CC(C)C)N(C)C(=O)C2(CCCC2)NC(=O)[C@@H]2C[C@H](OCc3ccc(C)cc3)CN2C(=O)[C@H](CCc2ccc(C(F)(F)F)c(F)c2)NC(=O)CN(C)C(=O)[C@H](CC2CCCCC2)N(C)C(=O)CN(C)C(=O)CN(C)C1=O` [US20240148821, Compound 2140] ([NMeL]I[Sar][Sar][NMeCha][Sar][hPhe(3-F,4-CF3)][cisHyp](Meb)[Ac5c][NMeL][NMeD]-Piperidide; lactam N-11), for which the IC50 came to 0.032 µM.

`CC[C@H](C)[C@@H]1NC(=O)[C@H](C)N(C)C(=O)C[C@@H](C(=O)N2CCCCC2)N(C)C(=O)[C@H](C2CCC2)N(C)C(=O)C2(CCCC2)NC(=O)CN(c2ccsc2)C(=O)[C@H](CCc2ccc(C(F)(F)F)c(Cl)c2)NC(=O)CN(C)C(=O)[C@H](CC2CCCCC2)N(C)C(=O)CN(C)C(=O)CN(C)C1=O` [US20240148821, Compound 2149] ([NMeA]I[Sar][Sar][NMeCha][Sar][hPhe(3-Cl-4-CF3)][X108][Ac5c][NMeGly(cBu)][NMeD]-Piperidide; lactam N-11) gave an IC50 of 0.004 µM. Against the preceding compound, the IC50 is about 8-fold lower.

With `CC[C@H](C)[C@@H]1NC(=O)[C@H](CC(C)C)N(C)C(=O)C[C@@H](C(=O)N2CCCCC2)N(C)C(=O)[C@H](C2CCCCC2)N(C)C(=O)C2(CCCC2)NC(=O)[C@H](Cc2ccc(C#N)nc2)N(C)C(=O)[C@H](CCc2ccc(C(F)(F)F)c(Cl)c2)NC(=O)CN(C)C(=O)[C@H](CC2CCCCC2)N(C)C(=O)CN(C)C(=O)CN(C)C1=O` [US20240148821, Compound 2169] ([NMeL]I[Sar][Sar][NMeCha][Sar][hPhe(3-Cl-4-CF3)][X134][Ac5c][NMeChg][NMeD]-Piperidide; lactam N-11), the IC50 stood at 0.0061 µM. This IC50 lies about 1.5-fold higher than the previous one.

`CC[C@H](C)[C@@H]1NC(=O)[C@H](CC(C)C)N(C)C(=O)C[C@@H](C(=O)N2CCCCC2)N(C)C(=O)[C@H](C2CCCCC2)N(C)C(=O)C2(CCCC2)NC(=O)[C@H](Cc2ccc(O)c(F)c2)N(C)C(=O)[C@H](CCc2ccc(C(F)(F)F)c(Cl)c2)NC(=O)CN(C)C(=O)[C@H](CC2CCCCC2)N(C)C(=O)CN(C)C(=O)CN(C)C1=O` [US20240148821, Compound 2170] ([NMeL]I[Sar][Sar][NMeCha][Sar][hPhe(3-Cl-4-CF3)][NMeTyr(3-F)][Ac5c][NMeChg][NMeD]-Piperidide; lactam N-11): half-maximal inhibition (IC50) was put at 0.069 µM.

The compound `CC[C@H](C)[C@@H]1NC(=O)[C@H](CC(C)C)N(C)C(=O)C[C@@H](C(=O)N2CCCCC2)N(C)C(=O)[C@H](C2CCCCC2)N(C)C(=O)C2(CCCC2)NC(=O)CN(CCCCN)C(=O)[C@H](CCc2ccc(C(F)(F)F)c(Cl)c2)NC(=O)CN(C)C(=O)[C@H](CC2CCCCC2)N(C)C(=O)CN(C)C(=O)CN(C)C1=O` [US20240148821, Compound 2186] ([NMeL]I[Sar][Sar][NMeCha][Sar][hPhe(3-Cl-4-CF3)][Nlys][Ac5c][NMeChg][NMeD]-Piperidide; lactam N-11) had an IC50 of 0.0075 µM.
